Laboratory results as given in patent publication US10059688B2, “Protein tyrosine kinase modulators and methods of use” (BETTA PHARMACEUTICALS CO., LTD., priority 2013, dated 2018).

Experiments:
[1] = tested on: A549 (EGFR WT) NSCLC cells; test: Cell proliferation assay (MTS cell viability); type: cell-based; details: Homo sapiens, 72 h; A549 cells, 3 days of exposure, MTS
Method: (§1) Effects of test compounds on in vitro proliferation were measured by MTS cell viability assay.
A549 cells were maintained in Ham's F12K medium (Gibco) supplemented with 10% FBS, 100 units/mL penicillin, 100 units/mL streptomycin, and 2 mM glutamine.
(§2) Prepare test compounds in each well with a final medium volume of 200 μl;
Incubate for 3 days of exposure;
(§3) Prepare reagents following the instructions in the Cell Proliferation Assay kit (Promega);
(§4) Change to serum-free medium with a final volume of 100 l/well. Prepare a set of wells with medium only for background subtraction;
(§5) Add 20 μl MTS solution containing PMS to each well (final concentration of MTS will be 0.33 mg/ml);
(§6) Incubate 1 to 4 hours at 37° C. in a humidified, 5% CO2 atmosphere.
(§7) Record absorbance at 490 nm using VICTOR™ X5 plate reader (PerkinElmer).
(§8) All experimental points were set up in three wells and all experiments were repeated at least three times.

[2] = tested on: H1975 (EGFR L858R/T790M) NSCLC cells; test: Cell proliferation assay (MTS cell viability); type: cell-based; details: Homo sapiens, NCI-H1975, 72 h; H1975 cells, 3 days of exposure, MTS
[3] = tested on: HCC827 (EGFR Del) NSCLC cells; test: Cell proliferation assay (MTS cell viability); type: cell-based; details: Homo sapiens, 72 h; HCC827 cells, 3 days of exposure, MTS
Method: as §1, §2
Incubate for 3 days of exposure;
as §3, §4, §5, §6, §7, §8

[4] = biological target: EGFR (T790M) (h) (Homo sapiens (Human), UniProt P00533, T790M); test: Kinase assay, single dose inhibition (Millipore, 33P-ATP filter binding); type: biochemical; details: 0.1 μM test compound, 10 μM ATP; remaining activity relative to DMSO control = 100%
Method: (§9) Assay conditions included 10 μM ATP and 100 nM test compounds.
(§10) All reactions are initiated by the addition of the MgATP mix. After incubation for 40 minutes at room temperature, the reaction is stopped by the addition of 3% phosphoric acid solution. 10 μL of the reaction is then spotted onto a P30 filtermat and washed three times for 5 minutes in 75 mM phosphoric acid and once in methanol prior to drying and scintillation counting. This assay is performed by Millipore. The experiment is carried out in duplicate. The value for the control sample (DMSO) was set to 100%, and the values for the compound-treated samples were expressed as activity relative to the control sample.

[5] = biological target: EGFR (L858R) (h) (Homo sapiens (Human), UniProt P00533, L858R); test: as above; type: biochemical; details: 0.1 μM test compound, 10 μM ATP; remaining activity relative to DMSO control = 100%
[6] = biological target: EGFR (h) (Homo sapiens (Human), UniProt P00533); test: as above; type: biochemical; details: 0.1 μM test compound, 10 μM ATP; remaining activity relative to DMSO control = 100%
Method: as §9, §10

[7] = biological target: ALK (h) (Homo sapiens (Human), UniProt Q9UM73); test: as above; type: biochemical; details: 0.1 μM test compound, 10 μM ATP, remaining activity relative to DMSO control = 100%; for remaining activity at 0.1 µM: 40 min
Chain of ALK (h) (Q9UM73 19-1620): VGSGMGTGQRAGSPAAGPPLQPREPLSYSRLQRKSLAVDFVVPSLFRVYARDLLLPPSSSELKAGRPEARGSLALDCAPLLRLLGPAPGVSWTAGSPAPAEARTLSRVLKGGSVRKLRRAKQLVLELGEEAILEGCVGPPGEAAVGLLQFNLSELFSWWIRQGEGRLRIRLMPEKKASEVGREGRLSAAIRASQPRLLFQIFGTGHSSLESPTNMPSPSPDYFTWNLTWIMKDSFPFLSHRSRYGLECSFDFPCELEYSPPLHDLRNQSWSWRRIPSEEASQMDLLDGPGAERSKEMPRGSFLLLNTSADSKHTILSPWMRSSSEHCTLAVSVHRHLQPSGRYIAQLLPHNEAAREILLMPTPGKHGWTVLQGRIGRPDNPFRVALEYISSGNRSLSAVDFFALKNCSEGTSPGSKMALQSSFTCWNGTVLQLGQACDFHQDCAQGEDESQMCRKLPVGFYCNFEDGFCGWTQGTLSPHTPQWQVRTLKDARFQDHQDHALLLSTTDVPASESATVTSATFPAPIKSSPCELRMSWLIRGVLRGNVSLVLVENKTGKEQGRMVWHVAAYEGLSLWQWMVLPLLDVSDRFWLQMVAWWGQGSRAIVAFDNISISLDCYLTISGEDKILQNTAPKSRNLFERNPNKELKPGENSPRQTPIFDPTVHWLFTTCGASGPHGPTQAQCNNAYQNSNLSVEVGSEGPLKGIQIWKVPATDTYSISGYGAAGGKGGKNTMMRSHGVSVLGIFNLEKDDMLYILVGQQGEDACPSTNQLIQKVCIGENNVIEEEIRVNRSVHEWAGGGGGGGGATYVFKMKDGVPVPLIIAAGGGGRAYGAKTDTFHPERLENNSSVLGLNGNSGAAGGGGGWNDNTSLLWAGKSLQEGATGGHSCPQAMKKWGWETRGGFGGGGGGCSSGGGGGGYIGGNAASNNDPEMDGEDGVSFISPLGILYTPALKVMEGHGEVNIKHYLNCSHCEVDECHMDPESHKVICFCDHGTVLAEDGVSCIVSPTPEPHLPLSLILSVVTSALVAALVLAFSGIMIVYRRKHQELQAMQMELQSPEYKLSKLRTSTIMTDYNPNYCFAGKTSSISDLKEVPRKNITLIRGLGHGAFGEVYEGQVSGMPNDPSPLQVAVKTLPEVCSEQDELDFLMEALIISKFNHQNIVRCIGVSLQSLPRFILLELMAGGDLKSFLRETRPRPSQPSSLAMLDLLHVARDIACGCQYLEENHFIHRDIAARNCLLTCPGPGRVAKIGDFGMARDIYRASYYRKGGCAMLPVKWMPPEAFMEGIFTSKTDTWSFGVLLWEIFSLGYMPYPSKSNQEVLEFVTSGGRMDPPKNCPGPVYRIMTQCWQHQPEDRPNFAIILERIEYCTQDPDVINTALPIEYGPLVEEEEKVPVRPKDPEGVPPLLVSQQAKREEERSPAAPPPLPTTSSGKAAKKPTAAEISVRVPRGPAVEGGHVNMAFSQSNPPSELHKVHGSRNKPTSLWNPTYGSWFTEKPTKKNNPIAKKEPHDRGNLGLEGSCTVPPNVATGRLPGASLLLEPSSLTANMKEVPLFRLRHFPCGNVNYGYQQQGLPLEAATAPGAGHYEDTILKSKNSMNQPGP
Method: as §9, §10

[8] = biological target: EGFR (T790M, L858R) (h) (Homo sapiens (Human), UniProt P00533, L858R/T790M); test: as above; type: biochemical; details: 0.1 μM test compound, 10 μM ATP; remaining activity relative to DMSO control = 100%

Molecule	IC50 [1] [nM]	IC50 [2] [nM]	IC50 [3] [nM]	Activity (control) % EGFR (T790M) (h) [4] [%]	Activity (control) % EGFR (L858R) (h) [5] [%]	Activity (control) % EGFR (h) [6] [%]	Activity (control) % ALK (h) [7] [%]	Activity (control) % EGFR (T790M, L858R) (h) [8] [%]	remaining activity at 0.1 µM [7] [%]
C=CC(=O)Nc1cccc(Oc2nc(Nc3ccc(N4CCN(C)CC4)cc3OC)ncc2Cl)c1 [WZ4002, reference compound]	> 3000								
C=CC(=O)Nc1cccc(Nc2ncc(C(F)(F)F)c(Nc3ccccc3C(=O)C(N)=O)n2)c1 [Example 58, N-(3-(4-(2-(2-amino-2-oxoacetyl)phenylamino)-5-(trifluoromethyl)pyrimidin-2-ylamino)phenyl)acrylamide]	370	980	530						
COc1cc(Nc2ncc(Cl)c(Nc3ccccc3C(=O)C(=O)N(C)C)n2)ccc1N1CCN(C(C)=O)CC1 [Example 94, 2-(2-(2-(4-(4-acetylpiperazin-1-yl)-3-methoxyphenylamino)-5-chloropyrimidin-4-ylamino)phenyl)-N,N-dimethyl-2-oxoacetamide]				45	84	100	6	9	
CCN(CC)C(=O)C(=O)c1ccccc1Nc1nc(Nc2ccc(N3CCN(C)CC3)c(OC)c2)ncc1Cl [Example 130, 2-(2-(5-chloro-2-(3-methoxy-4-(4-methylpiperazin-1-yl)phenylamino)pyrimidin-4-ylamino)phenyl)-N,N-diethyl-2-oxoacetamide]				84	98	113	13	22	
COc1cc(Nc2ncc(Cl)c(Nc3ccccc3C(=O)C(=O)N(C)C)n2)ccc1N1CCOCC1 [Example 117, 2-(2-(5-chloro-2-(3-methoxy-4-morpholinophenylamino)pyrimidin-4-ylamino)phenyl)-N,N-dimethyl-2-oxoacetamide]				65	88	113	8	14	
C=C(CN1CCCCC1)C(=O)Nc1cccc(Nc2ncc(Cl)c(Nc3ccccc3C(=O)C(=O)N(C)C)n2)c1 [Example 113, N-(3-(5-chloro-4-(2-(2-(dimethylamino)-2-oxoacetyl)phenylamino)pyrimidin-2-ylamino)phenyl)-2-(piperidin-1-ylmethyl)acrylamide]				16	78	88	19	3	
C=C(CN1CCCCC1)C(=O)Nc1ccc(OC)c(Nc2ncc(Cl)c(Nc3ccccc3C(=O)C(=O)N(C)C)n2)c1 [Example 73, N-(3-(5-chloro-4-(2-(2-(dimethylamino)-2-oxoactyl)phenylamino)pyrimidin-2-ylamino)-4-methoxyphenyl)-2-(piperidin-1-ylmethyl)acrylamide]				3	37	67	17	3	
CN(C)C/C=C/C(=O)Nc1cccc(Nc2ncc(Cl)c(Nc3ccccc3C(=O)C(=O)N(C)C)n2)c1 [Example 114, (E)-N-(3-(5-chloro-4-(2-(2-(dimethylamino)-2-oxoacetyl)phenylamino)pyrimidin-2-ylamino)phenyl)-4-(dimethylamino)but-2-enamide]				47	52	91	10	8	
C=CC(=O)Nc1cc(Nc2ncc(Cl)c(Nc3ccccc3C(=O)C(=O)N(CC)CC)n2)ccc1OC [Example 132, N-(5-(5-chloro-4-(2-(2-(diethylamino)-2-oxoactyl)phenylamino)pyrimidin-2-ylamino)-2-methoxyphenyl)acrylamide]				77	114	103	16	30	
N-(5-(5-chloro-4-(2-(2-(dimethylamino)-2-oxoactyl)phenylamino)pyrimidin-2-ylamino)-2-(tetrahydrofuran-3-yloxy)phenyl)acrylamide [Example 124]				78	100	109	16	20	
C=CC(=O)Nc1ccc(OC)c(Nc2ncc(Cl)c(Nc3ccccc3C(=O)C(=O)N3CCN(C)CC3)n2)c1 [Example 89, N-(3-(5-chloro-4-(2-(2-(4-methylpiperazin-1-yl)-2-oxoacetyl)phenylamino)pyrimidin-2-ylamino)-4-methoxyphenyl)acrylamide]				5	10	67	8	1	
CN(C)C(=O)C(=O)c1ccccc1Nc1nc(Nc2ccc(F)c(NC(=O)CCN3CCOCC3)c2)ncc1Cl [Example 123, N-(5-(5-chloro-4-(2-(2-(dimethylamino)-2-oxoactyl)phenylamino)pyrimidin-2-ylamino)-2-fluorophenyl)-3-morpholinopropanamide]				84	94	115	17	31	
C=CC(=O)Nc1cc(Nc2ncc(Cl)c(Nc3ccccc3C(=O)C(=O)N(C)C)n2)ccc1N1CCN(C)CC1 [Example 111, N-(5-(5-chloro-4-(2-(2-(dimethylamino)-2-oxoactyl)phenylamino)pyrimidin-2-ylamino)-2-(4-methylpiperazin-1-yl)phenyl)acrylamide]				59	76	109	8	11	
C=C(CN1CCOCC1)C(=O)Nc1ccc(OC)c(Nc2ncc(Cl)c(Nc3ccccc3C(=O)C(=O)N(C)C)n2)c1 [Example 41, N-(3-(5-chloro-4-(2-(2-(dimethylamino)-2-oxoacetyl)phenylamino)pyrimidin-2-ylamino)-4-methoxyphenyl)-2-(morpholinomethyl)acrylamide]				2	39	76		3	21
C=C(CN1CCCCC1)C(=O)Nc1cc(Nc2ncc(Cl)c(Nc3ccccc3C(=O)C(=O)N(C)C)n2)ccc1N1CCOCC1 [Example 129, N-(5-(5-chloro-4-(2-(2-(dimethylamino)-2-oxoactyl)phenylamino)pyrimidin-2-ylamino)-2-morpholinophenyl)-2-(piperidin-1-ylmethyl)acrylamide]				24	75	104	8	3	
C=CC(=O)Nc1ccc(N2CCN(C)CC2)c(Nc2ncc(Cl)c(Nc3ccccc3C(=O)C(=O)N(C)C)n2)c1 [Example 135, N-(3-(5-chloro-4-(2-(2-(dimethylamino)-2-oxoacetyl)phenylamino)pyrimidin-2-ylamino)-4-(4-methylpiperazin-1-yl)phenyl)acrylamide]				96	103	106	80	95	
C=CC(=O)Nc1cc(Nc2ncc(Cl)c(Nc3ccccc3C(=O)C(=O)N(C)CCN(C)C)n2)ccc1OC [Example 102, N-(5-(5-chloro-4-(2-(2-((2-(dimethylamino)ethyl)(methyl)amino)-2-oxoactyl)phenylamino)pyrimidin-2-ylamino)-2-methoxyphenyl)acrylamide]				40	57	98	5	5	
C=CC(=O)Nc1ccc(OC2CCOC2)c(Nc2ncc(Cl)c(Nc3ccccc3C(=O)C(=O)N(C)C)n2)c1 (centres unmarked) [Example 136, N-(3-(5-chloro-4-(2-(2-(dimethylamino)-2-oxoactyl)phenylamino)pyrimidin-2-ylamino)-4-(tetrahydrofuran-3-yloxy)phenyl)acrylamide]				92	104	99		54	29
COc1ccc(NC(=O)/C=C/CN(C)C)cc1Nc1ncc(Cl)c(Nc2ccccc2C(=O)C(=O)N(C)C)n1 [Example 80, (E)-N-(3-(5-chloro-4-(2-(2-(dimethylamino)-2-oxoacetyl)phenylamino)pyrimidin-2-ylamino)-4-methoxyphenyl)-4-(dimethylamino)but-2-enamide]				42	43	101	10	7	
